Legend:
human plasma = test: Measurement of intrinsic coagulation time (APTT) in vitro; format: biochemical
Description: Activated partial thromboplastin time (APTT) is measured in the presence of the test compounds diluted at various concentrations. A test compound diluted with DMSO at various concentrations is mixed with human plasma and APTT reagent. The mixture is incubated at 37° C. for 2 minutes; calcium chloride (25 mM) is added to the mixture; and the coagulation time is thereafter measured. It should be noted that the anticoagulant activity of the test compound is described in terms of the concentration required to double the coagulation time for the case where no test compound is added.

human FXa = biological target: T1, human FXa (Homo sapiens, UniProt P00742); test: Measurement of human FXa inhibitory action; format: biochemical; conditions: bioassay procedure of Experimental Example 1, a); reference compounds
T1 construct: purchased Enzyme Research Laboratories, Inc
Description: In vitro FXa inhibitory activity is measured in accordance with the method of Kettner et al. (Journal of Biological Chemistry, vol. 265, pages 18289 to 18297, 1990). To be more specific, human FXa (product of Enzyme Research Laboratories, Inc., 0.019 U/ml) is mixed with a test compound diluted with dimethylsulfoxide (DMSO) at various concentrations and a synthetic substrate S-2222 (Chromogenix AB, 0.4 mM). The mixtures are incubated at 37° C. in Tris-hydrochloric acid buffer (pH 7.5) while the absorbance at 405 nm is measured continuously. To calculate the FXa inhibitory activity of the test compound, the initial reaction velocity is compared with the value for a control containing no test compound. It should be noted that the FXa inhibitory activity of the test compound is generally indicated as IC50.

T1 sequence (P00742 235-488 limits assumed): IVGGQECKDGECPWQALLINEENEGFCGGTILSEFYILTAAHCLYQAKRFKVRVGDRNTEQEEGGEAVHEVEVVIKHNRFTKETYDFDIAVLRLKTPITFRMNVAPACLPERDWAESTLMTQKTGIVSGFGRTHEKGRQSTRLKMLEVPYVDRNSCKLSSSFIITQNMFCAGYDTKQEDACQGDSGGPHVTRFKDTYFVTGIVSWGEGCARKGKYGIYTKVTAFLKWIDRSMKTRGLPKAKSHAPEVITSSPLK
T1 sequence (P00742 41-179 partner limits assumed): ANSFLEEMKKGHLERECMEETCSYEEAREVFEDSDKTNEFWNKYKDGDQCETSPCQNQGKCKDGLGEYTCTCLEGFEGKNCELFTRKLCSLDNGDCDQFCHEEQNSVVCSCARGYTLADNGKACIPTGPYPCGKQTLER

| IC50 (human FXa) [µM] | Compound | Concentration required to double coagulation time (human plasma) [µM] |
| --- | --- | --- |
| – | COCCOC(=O)C12CN(S(=O)(=O)c3ccc4cc(Cl)ccc4c3)CC(=O)N1CC1(CCN(c3ccncc3)CC1)O2 (single isomer, unassigned; (-)) [Example 42, (−)-1,4-diaza-4-(6-chloronaphthalen-2-ylsulfonyl)-6-(2-methoxyethoxycarbonyl)-7-oxa-1′-(4-pyridyl)spiro[bicyclo[4.3.0]nonane-8,4′-piperidin]-2-one] | 0.20 |
| 31 | O=C(C(CNS(=O)(=O)c1ccc2cc(Cl)ccc2c1)NCC1CCN(c2ccncc2)CC1)N1CCS(=O)(=O)CC1 (stereo not drawn) [Compound B, 4-[3-(6-chloronaphthalen-2-ylsulfoneamide)-2-[l-(4-pyridyl)piperidin-4-ylmethyl]aminopropionyl]-1,1-dioxothiomorpholine] | – |
| 28 | CCOC(=O)[C@H]1CN(S(=O)(=O)c2ccc3cc(Cl)ccc3c2)CC(=O)N1CC1CCN(c2ccncc2)CC1 [Compound C, (R)-4-(6-chloronaphthalen-2-ylsulfonyl)-6-ethoxycarbonyl-l-[1-(4-pyridyl)piperidin-4-ylmethyl]piperazin-2-one] | – |
| – | O=C(O)COCC12CN(S(=O)(=O)c3ccc4cc(Cl)ccc4c3)CC(=O)N1CC1(CCN(c3ccncc3)CC1)O2 (stereo not drawn) [Example 5, 1,4-diaza-4-(6-chloronaphthalen-2-ylsulfonyl)-6-(carboxymethoxymethyl)-7-oxa-1′-(4-pyridyl)spiro[bicyclo[4.3.0]nonane-8,4′-piperidin]-2-one] | 0.43 |
| – | COCC12CN(S(=O)(=O)c3ccc4ccccc4c3)CC(=O)N1CC1(CCN(c3ccncc3)CC1)O2 (stereo not drawn) [Example 6, 1,4-diaza-6-(methoxymethyl)-4-(2-naphthalenesulfonyl)-7-oxa-1′-(4-pyridyl)spiro[bicyclo[4.3.0]nonane-8,4′-piperidin]-2-one] | 0.99 |
| – | O=C1CN(S(=O)(=O)c2ccc3cc(Cl)ccc3c2)CC2OC3(CCN(c4ccncc4)CC3)CN12 (stereo not drawn) [Example 9, 1,4-diaza-4-(6-chloronaphthalen-2-ylsulfonyl)-7-oxa-1′-(4-pyridyl)spiro[bicyclo[4.3.0]nonane-8,4′-piperidin]-2-one] | 0.29 |
| – | COCC12CN(S(=O)(=O)c3ccc4cc(Cl)ccc4c3)CC(=O)N1CC1(CCN(c3cc[n+](C)cc3)CC1)O2.Cc1ccc(S(=O)(=O)[O-])cc1 (stereo not drawn) [Example 23, 4-[1,4-diaza-4-(6-chloronaphthalen-2-ylsulfonyl)-6-(methoxymethyl)-7-oxa-2-oxospiro[bicyclo[4.3.0]nonane-8,4′-piperidin-1′-yl]]-1-methylpyridinium p-toluenesulfonate] | 0.62 |
| – | CC(C)OC(=O)C12CN(S(=O)(=O)c3ccc4cc(Cl)ccc4c3)CC(=O)N1CC1(CCN(c3ccncc3)CC1)O2 (stereo not drawn) [Example 29, 1,4-diaza-4-(6-chloronaphthalen-2-ylsulfonyl)-6-(isopropoxycarbonyl)-7-oxa-1′-(4-pyridyl)spiro[bicyclo[4.3.0]nonane-8,4′-piperidin]-2-one] | 0.90 |
| – | NCC12CN(S(=O)(=O)c3ccc4cc(Cl)ccc4c3)CC(=O)N1CC1(CCN(c3ccncc3)CC1)O2 (stereo not drawn) [Example 58, 6-(aminomethyl)-1,4-diaza-4-(6-chloronaphthalen-2-ylsulfonyl)-7-oxa-1′-(4-pyridyl)spiro[bicyclo[4.3.0]nonane-8,4′-piperidin]-2-one] | 0.18 |
| – | CC12CN(S(=O)(=O)c3ccc4cc(Cl)ccc4c3)CC(=O)N1CC1(CCN(c3ccncc3)CC1)O2 (stereo not drawn) [Example 69, 1,4-diaza-4-(6-chloronaphthalen-2-ylsulfonyl)-6-methyl-7-oxa-1′-(4-pyridyl)spiro[bicyclo[4.3.0]nonane-8,4′-piperidin]-2-one] | 0.36 |
| – | O=C1CN(S(=O)(=O)c2cc3ccc(Cl)cc3s2)CC2NC3(CCN(c4ccncc4)CC3)CN12 (stereo not drawn) [Example 275, 1,4,7-triaza-4-(6-chlorobenzo[b]thiophen-2-ylsulfonyl)-1′-(4-pyridyl)spiro[bicyclo[4.3.0]nonane-8,4′-piperidin]-2-one] | 0.17 |
| – | COCC12CN(S(=O)(=O)C3=Cc4ccc(Cl)cc4OC3)CC(=O)N1CC1(CCN(c3ccncc3)CC1)O2 (stereo not drawn) [Example 388, 1,4-diaza-4-(7-chloro-2H-benzopyran-3-sulfonyl)-6-(methoxymethyl)-7-oxa-1′-(4-pyridyl)spiro[bicyclo[4.3.0]nonane-8,4′-piperidin]-2-one] | 0.22 |
| – | COCC12CN(S(=O)(=O)c3cc4ccc(Cl)cc4s3)CC(=O)N1CC1(CCN(c3ccncc3)CC1)O2 (stereo not drawn) [Example 399, 1,4-diaza-4-(6-chlorobenzo[b]thiophen-2-ylsulfonyl)-6-(methoxymethyl)-7-oxa-1′-(4-pyridyl)spiro[bicyclo[4.3.0]nonane-8,4′-piperidin]-2-one] | 0.18 |
| – | COCC12CN(S(=O)(=O)c3cc4ccc(Cl)cc4s3)CC(=O)N1CC1(CCN(c3ccncc3)CC1)N2 (stereo not drawn) [Example 461, 1,4,7-triaza-4-(6-chlorobenzo[b]thiophen-2-ylsulfonyl)-6-(methoxymethyl)-1′-(4-pyridyl)spiro[bicyclo[4.3.0]nonane-8,4′-piperidin]-2-one] | 0.16 |
| – | COCC12CN(S(=O)(=O)c3cc4cc(Cl)ccc4o3)CC(=O)N1CC1(CCN(c3ccncc3)CC1)N2 (stereo not drawn) [Example 471, 1,4,7-triaza-4-(5-chlorobenzo[b]furan-2-ylsulfonyl)-6-(methoxymethyl)-1′-(4-pyridyl)spiro[bicyclo[4.3.0]nonane-8,4′-piperidin]-2-one] | 0.27 |
| – | COCC12CN(S(=O)(=O)c3cc4cc(Cl)ccc4o3)CC(=O)N1CC1(CCN(c3ccncc3)CC1)N2C (stereo not drawn) [Example 533, 1,4,7-triaza-4-(5-chlorobenzo[b]furan-2-ylsulfonyl)-6-(methoxymethyl)-7-methyl-1′-(4-pyridyl)spiro[bicyclo[4.3.0]nonane-8,4′-piperidin]-2-one] | 0.35 |
| – | O=C1CN(S(=O)(=O)C=Cc2ccc(Cl)s2)CC2OC3(CCN(c4ccncc4)CC3)CN12 (stereo not drawn) [Example 600, 1,4-diaza-4-[2-(5-chlorothiophen-2-yl)ethenesulfonyl]-7-oxa-1′-(4-pyridyl)spiro[bicyclo[4.3.0]nonane-8,4′-piperidin]-2-one] | 0.22 |
| – | COCC12CN(S(=O)(=O)C=Cc3ccc(Cl)s3)CC(=O)N1CC1(CCN(c3ccncc3)CC1)N2C (stereo not drawn) [Example 740, 1,4,7-triaza-4-[2-(5-chlorothiophen-2-yl)ethenesulfonyl]-6-(methoxymethyl)-7-methyl-1′-(4-pyridyl)spiro[bicyclo[4.3.0]nonane-8,4′-piperidin]-2-one] | 0.18 |

Source: patent US7122662B2, “Tricyclic compound having spiro union” (Mochida Pharmaceutical Co., Ltd., priority 1999, dated 2006)
